Results as given in US7256206B2, “Bicyclic compounds and compositions” (IRM LLC, priority 2003, dated 2007).

Legend:
[1] = biological target: T1, EDG-8 (Homo sapiens, UniProt Q9H228); experiment: EDG-8 GTP [γ-35S] binding assay (RH7777 membranes); format: biochemical
T1 construct: c-myc (print says 'tagged or untagged'; not resolved for this receptor) (C); expressed in transfected cells; membranes

[2] = system: circulating lymphocytes; experiment: Measurement of blood lymphocyte depletion; format: in vivo, Mice (C57bl/6 male); conditions: mice, blood collected 18 hours after administration, dose for 50% blood lymphocyte depletion; for ED50: Mus musculus, Lymphocyte, ip, 18 h
Description: (§1) C. In Vivo: Screening Assays for Measurement of Blood Lymphocyte Depletion and Assessment of Heart Effect
Measurement of circulating lymphocytes: Compounds are dissolved in DMSO and further diluted with deionized water. Mice (C57bl/6 male, 6–10 week-old) are administered 20 μg of compound (diluted in 200 μl water, 4% DMSO) via intra-peritoneal (IP) injection under short isoflurane anesthesia. Water (200 μl), 4% DMSO, and FTY720 (10 μg) are included as negative and positive controls, respectively.
Blood is collected from the retro-orbital sinus 18 hours after drug administration under short isoflurane anesthesia. Whole blood samples are subjected to hematology analysis. Peripheral lymphocyte counts are determined using an automated analyzer. Subpopulations of peripheral blood lymphocytes are stained by fluorochrome-conjugated specific antibodies and analyzed using a fluorescent activating cell sorter (Facscalibur). Two mice are used to assess the lymphocyte depletion activity of each compound screened. The result is an ED50, which is defined as the effective dose required displaying 50% of blood lymphocyte depletion.

[3] = biological target: T2, human EDG-1 (Homo sapiens, UniProt P21453); experiment: EDG-1 (S1P1) GTP [γ-35S] binding assay (SPA); format: biochemical; conditions: for EC50: GTP [γ-35S] binding, CHO membranes
T2 construct: c-myc (N); expressed in transfected cells; membrane protein suspensions
Description: (§2) A. In vitro: a Scintillation Proximity Assay (SPA) for Measuring GTP [γ-^35S] Binding to Membranes Prepared from CHO Cells Expressing Human EDG/S1P Receptors
EDG-1 (S1P1) GTP [γ-^35S] binding assay: Membrane protein suspensions are prepared from CHO cell clones stably expressing a human EDG-1 N-terminal c-myc tag. Solutions of test compounds ranging from 10 mM to 0.01 mM are prepared in DMSO/50 mM HCl and then diluted into assay buffer (20 mM HEPES, pH7.4, 100 mM NaCl, 10 mM MgCl2, 0.1% fat free BSA). Assay buffer containing […] is mixed with wheat germ agglutinin-coated SPA-beads (1 mg/well) followed by the addition of human EDG-1 membrane protein suspension (10 μg/well) and test compound. The bead/membrane/compound assay components are then mixed for 10–15 minutes on a shaker at room temperature. GTP [γ-^35S] (200 pM) and bead/membrane/compound assay mixture are added to individual wells of a 96 well Optiplate™ (final volume 225 μl/well), sealed and incubated at room temperature for 110 to 120 minutes under constant shaking. After centrifugation (2000 rpm, 10 minutes) luminescence is measured with a TopCount™ instrument.
(§3) EC50 values are obtained by fitting the GTP [γ-^35S] binding curves (raw data) with the dose response curve-fitting tool of ORIGIN V. 6.1. Basal binding (no compound) and the highest stimulation of GTP [γ-^35S] binding achieved by an agonist are used as the fitting range. Seven different concentrations are used to generate a concentration response curve (using two or three data points per concentration).

[4] = biological target: T3, EDG-5 (Homo sapiens, UniProt O95136); experiment: EDG-5 GTP [γ-35S] binding assay; format: biochemical; conditions: CHO membranes
T3 construct: c-myc (print says 'tagged or untagged'; not resolved for this receptor) (C); expressed in transfected cells; membranes
From the text: as §2, §3
(§4) Concentrations of EDG receptor expressing membranes range between 13–19 μg per well.

[5] = biological target: T4, EDG-6 (Homo sapiens, UniProt O95977); experiment: EDG-6 GTP [γ-35S] binding assay; format: biochemical; conditions: CHO membranes
T4 construct: c-myc (print says 'tagged or untagged'; not resolved for this receptor) (C); expressed in transfected cells; membranes
T4 sequence (O95977 1-384): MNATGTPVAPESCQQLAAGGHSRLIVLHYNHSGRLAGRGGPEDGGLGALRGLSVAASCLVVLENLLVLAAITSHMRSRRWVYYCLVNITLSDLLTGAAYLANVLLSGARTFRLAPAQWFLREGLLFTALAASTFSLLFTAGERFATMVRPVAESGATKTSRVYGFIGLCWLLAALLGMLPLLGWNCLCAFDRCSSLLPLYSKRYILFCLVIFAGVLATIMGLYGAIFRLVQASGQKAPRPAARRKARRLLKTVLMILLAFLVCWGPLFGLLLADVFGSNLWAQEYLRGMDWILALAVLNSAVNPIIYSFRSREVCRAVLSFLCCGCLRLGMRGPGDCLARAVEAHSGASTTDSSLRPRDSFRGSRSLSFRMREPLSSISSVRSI
From the text: as §2, §3, §4

[6] = Assessment of heart effect (AnonyMOUSE ECG screening); format: in vivo, mice (C57bl/6 male); conditions: ECG before and after compound, 90 μg IP
Description: as §1
Assessment of Heart Effect: The effects of compounds on cardiac function are monitored using the AnonyMOUSE ECG screening system. Electrocardiograms are recorded in conscious mice (C57bl/6 male, 6–10 week-old) before and after compound administration. ECG signals are then processed and analyzed using the e-MOUSE software. 90 μg of compound further diluted in 200 μl water, 15% DMSO are injected IP. Four mice are used to assess the heart effect of each compound.

[7] = biological target: T5, EDG-3 (Homo sapiens, UniProt Q99500); experiment: EDG-3 GTP [γ-35S] binding assay; format: biochemical; conditions: CHO membranes
T5 construct: c-myc (print says 'tagged or untagged'; not resolved for this receptor) (C); expressed in transfected cells; membranes
From the text: as §2, §3, §4

T2 sequence (P21453 whole entry): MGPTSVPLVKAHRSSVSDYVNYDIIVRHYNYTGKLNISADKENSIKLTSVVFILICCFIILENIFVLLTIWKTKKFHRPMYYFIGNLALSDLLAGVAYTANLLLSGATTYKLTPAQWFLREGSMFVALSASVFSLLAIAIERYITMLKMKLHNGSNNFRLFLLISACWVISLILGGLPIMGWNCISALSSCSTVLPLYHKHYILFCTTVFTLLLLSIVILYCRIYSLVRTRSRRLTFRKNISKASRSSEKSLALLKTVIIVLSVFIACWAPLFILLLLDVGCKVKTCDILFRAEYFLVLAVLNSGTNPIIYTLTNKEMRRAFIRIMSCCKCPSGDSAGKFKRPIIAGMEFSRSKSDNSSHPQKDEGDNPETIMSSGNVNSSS
T3 sequence (O95136 whole entry): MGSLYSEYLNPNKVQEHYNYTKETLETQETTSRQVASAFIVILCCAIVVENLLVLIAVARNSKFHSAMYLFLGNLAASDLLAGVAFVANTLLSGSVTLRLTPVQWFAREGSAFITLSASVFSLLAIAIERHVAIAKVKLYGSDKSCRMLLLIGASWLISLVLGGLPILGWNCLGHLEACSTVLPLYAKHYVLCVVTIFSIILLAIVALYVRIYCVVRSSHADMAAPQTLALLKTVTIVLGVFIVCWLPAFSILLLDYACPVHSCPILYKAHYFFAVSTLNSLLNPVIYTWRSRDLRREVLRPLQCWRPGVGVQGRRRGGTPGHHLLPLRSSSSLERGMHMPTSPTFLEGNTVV
T5 sequence (Q99500 whole entry): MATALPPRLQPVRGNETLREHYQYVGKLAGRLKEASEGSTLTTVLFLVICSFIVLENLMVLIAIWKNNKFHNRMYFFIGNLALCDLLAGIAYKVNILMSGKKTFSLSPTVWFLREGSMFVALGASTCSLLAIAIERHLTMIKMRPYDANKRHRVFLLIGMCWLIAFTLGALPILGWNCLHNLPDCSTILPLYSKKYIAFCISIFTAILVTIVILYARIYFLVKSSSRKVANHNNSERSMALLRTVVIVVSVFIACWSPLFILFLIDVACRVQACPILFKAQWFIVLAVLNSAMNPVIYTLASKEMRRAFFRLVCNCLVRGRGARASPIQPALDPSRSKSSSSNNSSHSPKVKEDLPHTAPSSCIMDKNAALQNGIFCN
T1 sequence (Q9H228 whole entry): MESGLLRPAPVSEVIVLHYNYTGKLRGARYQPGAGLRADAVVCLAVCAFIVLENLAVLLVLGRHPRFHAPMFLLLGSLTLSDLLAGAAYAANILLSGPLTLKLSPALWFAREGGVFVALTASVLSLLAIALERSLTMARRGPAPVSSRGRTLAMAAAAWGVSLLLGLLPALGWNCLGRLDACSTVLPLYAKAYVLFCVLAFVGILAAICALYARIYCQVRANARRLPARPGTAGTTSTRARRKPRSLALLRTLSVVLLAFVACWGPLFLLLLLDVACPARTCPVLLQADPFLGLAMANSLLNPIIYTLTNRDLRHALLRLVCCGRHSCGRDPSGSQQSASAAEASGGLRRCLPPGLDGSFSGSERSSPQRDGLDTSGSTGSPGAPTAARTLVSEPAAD

EC50 [1] | EC50 [3] | EC50 [4] | EC50 [5] | EC50 [7] | selectivity for EDG-1 compared to EDG-3, EDG-5, EDG-6 and EDG-8 ([3]; GTP [γ-35S] binding assays) | Structure (SMILES) | ED50 [2] | Heart effect in conscious mice [6] | Lymphocyte Depletion ED50 ([2]; IP)
> 10000 nM | 0.86 nM | > 10000 nM | 168 nM | > 10000 nM | – | C/C(=N\OCc1ccc(-c2ccccc2)cc1)c1ccc(CCC(N)(CO)COP(=O)(O)O)cc1 (stereo not drawn) | ~0.1 mg/kg | clean | –
5.8 nM | 15.7 nM | > 10000 nM | 1240 nM | 3.5 nM | – | C/C(=N\OCc1ccc(-c2cccc(C(F)(F)F)c2)cc1)c1ccc(CCC(N)(CO)COP(=O)(O)O)cc1 (stereo not drawn) | < 1 mg/kg | clean | –
> 10000 nM | 0.79 nM | > 10000 nM | 4400 nM | > 10000 nM | – | C/C(=N\OCc1ccc(-c2ccsc2)cc1)c1ccc(CCC(N)(CO)COP(=O)(O)O)cc1 (stereo not drawn) [Compound 9] | 0.08 mg/kg | clean | ED50 ~0.08 mg/kg
> 10000 nM | 1.15 nM | > 10000 nM | > 10000 nM | > 10000 nM | at least 1000 fold | C/C(=N\OCc1ccc(-c2cccs2)cc1)c1ccc(CCC(N)(CO)COP(=O)(O)O)cc1 (stereo not drawn) [Compound 10, phosphoric acid mono-(2-amino-2-hydroxymethyl-4-{4-[1-(4-thiophen-2-yl-benzyloxy-imino)-ethyl]-phenyl}-butyl)ester] | ~0.2 mg/kg | clean | –
